#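 1) Cells in 96-well plates. 2) Compound, 48 h, 5 concentrations. 3) Linear interpolation between surrounding doses. 4) Unreached endpoint = highest concentration. At the GI50, growth is halved.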 The source made the active and inactive calls. Cut-off read from the data, not from the text of the source: active = GI50 up to about 1.1 µM and inactive = higher.
# Legend:
# Experiment in all cases: inhibition of tumour cell growth, NCI panel, 48 h
# [1] = test system: HOP-92
# [2] = test system: HCC 2998
# [3] = test system: SW-620
# [4] = test system: CAKI-1
# [5] = test system: CCRF-CEM
# [6] = test system: MOLT-4
# [7] = test system: IGROV-1
# [8] = test system: HL-60
# [9] = test system: A549
# [10] = test system: NCI-H226
# [11] = test system: HOP-62
# [12] = test system: SNB-19
# [13] = test system: SK-OV-3
# [14] = test system: SK-MEL-5
# [15] = test system: TK-10
# [16] = test system: OVCAR-4
# [17] = test system: UACC-62
# [18] = test system: MDA-MB-231
# [19] = test system: T47D
# [20] = test system: MDA-N
Compound,GI50 [1],GI50 [2],GI50 [3],GI50 [4],GI50 [5],GI50 [6],GI50 [7],GI50 [8],GI50 [9],GI50 [10],GI50 [11],GI50 [12],GI50 [13],GI50 [14],GI50 [15],GI50 [16],GI50 [17],GI50 [18],GI50 [19],GI50 [20]
Clc1ccc(OCc2nnc3n2N=C(c2ccccc2)CS3)c(Cl)c1,4.21 µM (inactive),> 100 µM (inactive),> 100 µM (inactive),7.33 µM (inactive),4.03 µM (inactive),3.23 µM (inactive),6.4 µM (inactive),3.7 µM (inactive),6.5 µM (inactive),9.84 µM (inactive),> 10 µM (inactive),3.78 µM (inactive),> 100 µM (inactive),8.28 µM (inactive),7.98 µM (inactive),50.9 µM (inactive),6.58 µM (inactive),–,–,–
COC(=O)C(Br)C1CCc2ccccc21 (stereo not drawn),> 100 µM (inactive),> 100 µM (inactive),> 100 µM (inactive),> 100 µM (inactive),48.1 µM (inactive),68.7 µM (inactive),> 100 µM (inactive),26.5 µM (inactive),> 100 µM (inactive),46.3 µM (inactive),> 100 µM (inactive),82.2 µM (inactive),> 100 µM (inactive),> 100 µM (inactive),> 100 µM (inactive),53.2 µM (inactive),> 100 µM (inactive),–,–,–
CC(=O)C1=NN(c2ccccc2)C2(S1)SC(c1ccccc1)(c1ccccc1)c1ccccc12 (stereo not drawn),10.4 µM (inactive),> 100 µM (inactive),99.1 µM (inactive),–,49.3 µM (inactive),27.8 µM (inactive),33.1 µM (inactive),19.9 µM (inactive),36.7 µM (inactive),16.1 µM (inactive),34.6 µM (inactive),62.2 µM (inactive),30.8 µM (inactive),–,63.7 µM (inactive),24.2 µM (inactive),17.9 µM (inactive),–,–,–
Oc1nc2cc3nc(O)c(O)nc3cc2nc1O,–,> 100 µM (inactive),> 100 µM (inactive),> 100 µM (inactive),> 100 µM (inactive),> 100 µM (inactive),> 100 µM (inactive),> 100 µM (inactive),> 100 µM (inactive),> 100 µM (inactive),–,> 100 µM (inactive),> 100 µM (inactive),> 100 µM (inactive),> 100 µM (inactive),–,> 100 µM (inactive),> 100 µM (inactive),–,–
CCCCCCCCCCCC(=O)OCCOCCOCCOCCOCCOCc1ccccc1,> 100 µM (inactive),> 100 µM (inactive),> 100 µM (inactive),> 100 µM (inactive),> 100 µM (inactive),> 100 µM (inactive),> 100 µM (inactive),34.4 µM (inactive),> 100 µM (inactive),> 100 µM (inactive),> 100 µM (inactive),> 100 µM (inactive),> 100 µM (inactive),> 100 µM (inactive),> 100 µM (inactive),> 100 µM (inactive),> 100 µM (inactive),–,–,–
Cc1cccc(Br)[n+]1[O-],> 100 µM (inactive),–,> 100 µM (inactive),> 100 µM (inactive),> 100 µM (inactive),> 100 µM (inactive),> 100 µM (inactive),–,> 100 µM (inactive),96.4 µM (inactive),> 100 µM (inactive),> 100 µM (inactive),> 100 µM (inactive),> 100 µM (inactive),> 100 µM (inactive),> 100 µM (inactive),> 100 µM (inactive),91.6 µM (inactive),> 100 µM (inactive),–
O=CC[C@H]1C(=O)C[C@@H]2CCC[C@@H]21,57.3 µM (inactive),> 100 µM (inactive),46.9 µM (inactive),> 100 µM (inactive),34.1 µM (inactive),43.4 µM (inactive),> 100 µM (inactive),32.1 µM (inactive),> 100 µM (inactive),80.4 µM (inactive),> 100 µM (inactive),> 100 µM (inactive),> 100 µM (inactive),33.5 µM (inactive),> 100 µM (inactive),> 100 µM (inactive),84.3 µM (inactive),–,–,–
COc1c(C)c(C/C=C(\C)CCCCO)c(OC)c(OC)c1OC,> 100 µM (inactive),–,> 100 µM (inactive),0.112 µM (active),45.6 µM (inactive),73.6 µM (inactive),45.2 µM (inactive),–,23.7 µM (inactive),–,> 100 µM (inactive),> 100 µM (inactive),> 100 µM (inactive),88.7 µM (inactive),> 100 µM (inactive),> 100 µM (inactive),> 100 µM (inactive),> 100 µM (inactive),–,> 100 µM (inactive)
[N-]=[N+]=C(C(=O)C(=[N+]=[N-])C(=O)c1ccccc1)C(=O)c1ccccc1,–,> 100 µM (inactive),> 100 µM (inactive),–,–,–,> 100 µM (inactive),> 100 µM (inactive),> 100 µM (inactive),–,> 100 µM (inactive),> 100 µM (inactive),–,> 100 µM (inactive),> 100 µM (inactive),–,> 100 µM (inactive),> 100 µM (inactive),–,> 100 µM (inactive)
CCOC(=O)/N=c1/nc(N(C)C)ss1,> 100 µM (inactive),> 100 µM (inactive),> 100 µM (inactive),> 100 µM (inactive),> 100 µM (inactive),> 100 µM (inactive),> 100 µM (inactive),> 100 µM (inactive),> 100 µM (inactive),30.3 µM (inactive),> 100 µM (inactive),> 100 µM (inactive),> 100 µM (inactive),> 100 µM (inactive),> 100 µM (inactive),> 100 µM (inactive),> 100 µM (inactive),–,–,–
N#CC1(C#N)NC(c2ccsc2)C(C#N)(C#N)NC1c1ccsc1 (stereo not drawn),> 100 µM (inactive),> 100 µM (inactive),> 100 µM (inactive),> 100 µM (inactive),80.2 µM (inactive),> 100 µM (inactive),> 100 µM (inactive),> 100 µM (inactive),> 100 µM (inactive),> 100 µM (inactive),> 100 µM (inactive),> 100 µM (inactive),> 100 µM (inactive),> 100 µM (inactive),> 100 µM (inactive),> 100 µM (inactive),> 100 µM (inactive),> 100 µM (inactive),–,> 100 µM (inactive)
O=c1c2c(sc3ccccc13)NCN(CCc1ccccc1)C2,53 µM (inactive),22.1 µM (inactive),31.8 µM (inactive),41.6 µM (inactive),43.9 µM (inactive),31.2 µM (inactive),24.7 µM (inactive),> 100 µM (inactive),49 µM (inactive),32 µM (inactive),34.6 µM (inactive),30.8 µM (inactive),66.5 µM (inactive),14.8 µM (inactive),–,36.8 µM (inactive),34.2 µM (inactive),23.5 µM (inactive),–,25.6 µM (inactive)
Cc1n[nH]c(=O)n1/N=C/c1ccco1,–,> 100 µM (inactive),> 100 µM (inactive),> 100 µM (inactive),> 100 µM (inactive),> 100 µM (inactive),–,–,> 100 µM (inactive),> 100 µM (inactive),> 100 µM (inactive),> 100 µM (inactive),> 100 µM (inactive),–,–,> 100 µM (inactive),> 100 µM (inactive),> 100 µM (inactive),> 100 µM (inactive),–
O=C1C=C(Nc2ccc(Cl)cc2Cl)c2ccccc2C1=O,21.2 µM (inactive),54.6 µM (inactive),39.5 µM (inactive),> 100 µM (inactive),30.8 µM (inactive),88.1 µM (inactive),50.9 µM (inactive),28.7 µM (inactive),28.5 µM (inactive),28.5 µM (inactive),30.5 µM (inactive),39.3 µM (inactive),99.1 µM (inactive),–,24.7 µM (inactive),87.9 µM (inactive),16.5 µM (inactive),–,–,–
CN1CC[C@@H](c2c(O)cc(O)c3c(=O)cc(-c4ccccc4Cl)oc23)[C@@H](O)C1,0.0556 µM (active),0.0693 µM (active),0.0333 µM (active),0.0343 µM (active),0.0468 µM (active),0.0367 µM (active),0.0304 µM (active),0.0211 µM (active),0.0543 µM (active),0.0357 µM (active),0.0324 µM (active),0.0407 µM (active),0.608 µM (active),0.0248 µM (active),0.0538 µM (active),0.0643 µM (active),0.0273 µM (active),0.0394 µM (active),–,–
Cc1ccc(NC(=O)CC/C(CC(=O)c2ccc(F)cc2)=N\NC(=O)C(=O)NN)cc1C,> 100 µM (inactive),> 100 µM (inactive),> 100 µM (inactive),> 100 µM (inactive),> 100 µM (inactive),–,> 100 µM (inactive),41.5 µM (inactive),> 100 µM (inactive),> 100 µM (inactive),> 100 µM (inactive),> 100 µM (inactive),> 100 µM (inactive),> 100 µM (inactive),> 100 µM (inactive),> 100 µM (inactive),> 100 µM (inactive),–,–,–
Cc1c(Cl)ccc2c(=O)c3cccc(CC(=O)O)c3oc12,> 100 µM (inactive),> 100 µM (inactive),> 100 µM (inactive),> 100 µM (inactive),> 100 µM (inactive),> 100 µM (inactive),> 100 µM (inactive),> 100 µM (inactive),> 100 µM (inactive),> 100 µM (inactive),> 100 µM (inactive),> 100 µM (inactive),–,> 100 µM (inactive),> 100 µM (inactive),> 100 µM (inactive),–,> 100 µM (inactive),–,> 100 µM (inactive)

# — ChEMBL document CHEMBL1201862, “PubChem BioAssay data set” (2004)
